Test results as given in publication PMC11148772, “Inhibition of protein translational machinery in triple-negative breast cancer as a promising therapeutic strategy” (Cell Reports Medicine, 2024).
Entries after “also recorded” stand apart in the source; their conditions may differ.

Columns and labels:
[1] = test system: MDA-MB-231, MDA-MB-468 and MCF12A cells; assay: Global proteome profiling with pathway enrichment; type: cell-based, human; details: 1 μM, 12 h, TNBC cells vs vehicle
Experimental: MDA-MB-231, MDA-MB-468, and MCF12A cells were grown to 80% confluence and then treated with DMSO (vehicle control) or SU056 (1 μM) for 12 h. Cells were washed twice with phosphate-buffered saline (PBS), harvested by scaping, and centrifuged. Cells were lysed by vortexing in 100 mM triethylammonium bicarbonate (TEAB, Thermo Fisher Scientific) in 1% sodium dodecyl sulfate (SDS). The lysate was centrifuged, and the supernatant was retained. A bicinchoninic acid assay (BCA, Thermo Scientific, Rockville, IL) was used to measure protein concentration and 50 μg of protein per sample was subjected to disulfide bond reduction using 10 mM TCEP (Sigma Aldrich) for 1 h at 55°C. Cysteine resides were then alkylated with iodoacetamide (Sigma Aldrich) for 30 min at room temperature in the dark. […] All samples were analyzed in triplicate.
Using a Dionex Ultimate Rapid Separation Liquid Chromatography system (Thermo Fisher Scientific), a 3 μL injection of the combined TMT-labeled peptide solution was loaded onto a PepMap 100 C18 trap column (Thermo Fisher Scientific) at a rate of 5 μL/min for 10 min. […] The flow rate was set to 0.6 μL/min throughout the gradient and each sample was analyzed in triplicate. […]
Raw LC-MS/MS data was analyzed using MaxQuant[50] searching against the Swiss-Prot human reference proteome database (20,626 entries as of 2020). […]

[2] = Maximum tolerated dose / acute oral toxicity; type: in vivo; design: key to Behavioral, Neurologic and Autonomic signs, Response, all listed signs: 0; no adverse effect; ±1 mild adverse effect; ±2, moderate adverse effect; ±3 severe adverse effect; details: for Body Weight, Mean / Toxicity (death/test) / Behavioral, Neurologic and Autonomic signs, Response, all listed signs: Female SD rats; for Behavioral, Neurologic and Autonomic signs, Response, all listed signs: observation time 1 hr, 3 animals
Experimental: Female Sprague-Dawley rats (Charles river laboratories, strain code: Crl:CD(SD) 001, 8–10 weeks old) were used by the eurofins lab services (Eurofins Discovery) to test the toxicity of SU056.
The acute oral toxicity of SU056 was evaluated by Eurofins lab services (Eurofins discovery). The oral toxicity study was performed in female rats and mice for multiple escalating doses (100 mg/kg, 200 mg/kg, 400 mg/kg). Rats and mice were monitored for their behavioral, neurological and autonomic signs after administration of SU056. The response was recorded as 0; no adverse effect, ±1 mild adverse effect, ±2, moderate adverse effect and ±3 severe adverse effect.

O=C1OCC2=C1C(c1cccc(F)c1)c1cc3c(cc1N2CCO)OCO3 (centres unmarked) [SU056, 9-(3-fluorophenyl)-5-(2-hydroxyethyl)-6,9-dihydro-[1,3]dioxolo[4,5-g]furo[3,4-b]quinolin-8(5H)-one]
protein translation processes (proteomic pathway analysis) [1]: modulated | Body Weight, Mean ([2]; 100 mg/kg, 0 hr): 212.7 gm | Toxicity (death/test) ([2]; 100 mg/kg, 15 min): 0/3 | Toxicity (death/test) ([2]; 100 mg/kg, 1 hr): 0/3 | Body Weight, Mean ([2]; 100 mg/kg, 24 hr): 216.7 gm | Toxicity (death/test) ([2]; 100 mg/kg, 24 hrs): 0/3 | Body Weight, Mean ([2]; 100 mg/kg, 48 hr): 219.0 gm | Toxicity (death/test) ([2]; 100 mg/kg, 48 hrs): 0/3 | Body Weight, Mean ([2]; 100 mg/kg, 72 hr): 229.7 gm | Toxicity (death/test) ([2]; 100 mg/kg, 72 hrs): 0/3 | Behavioral, Neurologic and Autonomic signs, Response, all listed signs ([2]; 100 mg/kg): 0 | Body Weight, Mean ([2]; 200 mg/kg, 0 hr): 204.3 gm | Toxicity (death/test) ([2]; 200 mg/kg, 15 min): 0/3 | Toxicity (death/test) ([2]; 200 mg/kg, 1 hr): 0/3 | Body Weight, Mean ([2]; 200 mg/kg, 24 hr): 208.0 gm | Toxicity (death/test) ([2]; 200 mg/kg, 24 hrs): 0/3 | Body Weight, Mean ([2]; 200 mg/kg, 48 hr): 211.0 gm | Toxicity (death/test) ([2]; 200 mg/kg, 48 hrs): 0/3 | Body Weight, Mean ([2]; 200 mg/kg, 72 hr): 215.0 gm | Toxicity (death/test) ([2]; 200 mg/kg, 72 hrs): 0/3 | Behavioral, Neurologic and Autonomic signs, Response, all listed signs ([2]; 200 mg/kg): 0 | Body Weight, Mean ([2]; 400 mg/kg, 0 hr): 204.0 gm | Toxicity (death/test) ([2]; 400 mg/kg, 15 min): 0/3 | Toxicity (death/test) ([2]; 400 mg/kg, 1 hr): 0/3 | Body Weight, Mean ([2]; 400 mg/kg, 24 hr): 200.0 gm | Toxicity (death/test) ([2]; 400 mg/kg, 24 hrs): 0/3 | Body Weight, Mean ([2]; 400 mg/kg, 48 hr): 209.7 gm | Toxicity (death/test) ([2]; 400 mg/kg, 48 hrs): 0/3 | Body Weight, Mean ([2]; 400 mg/kg, 72 hr): 216.7 gm | Toxicity (death/test) ([2]; 400 mg/kg, 72 hrs): 0/3 | Behavioral, Neurologic and Autonomic signs, Response, all listed signs ([2]; 400 mg/kg): 0 | behavioral, neurological, and anatomical signs of toxicity and morbidity ([2]; rats, 100, 200, and 400 mg/kg oral gavage, 72 h): not affected; also recorded: no observable changes
